{"source": "paper PMC9090717", "about": "“Fullerenemalonates inhibit amyloid beta aggregation, in vitro and in silico evaluation” (RSC Advances, 2018)", "key": {"[1]": {"system": "SH-SY5Y neuroblastoma cells", "conditions": "human, 24 h, 13 μM", "method": "(§1) The neuroblastoma cell lines SH-SY5Y (ATCC) were grown in 25 cm^2 flasks at 37 °C with 5% CO2 in advanced DMEM/F-12 medium (Sigma-Aldrich), supplemented with 10% fetal bovine serum (Invitrogen); for cytotoxicity assay, cells were seeded at a density of 1 × 10^4 in triplicate per sample in a 96 well microplate 24 h before the treatment. The fullerenemalonates were incubated for 24 h at the corresponding concentration for their ability to inhibit Aβ42 aggregation, 13 μM. Likewise, the vehicles of each fullerenemalonate other than water (acetonitrile and ethanol) were assessed to validate its toxicity. The cell viability assay was evaluated using Thiazolyl Blue Tetrazolium Bromide (MTT, Sigma-Aldrich); based on the conversion of MTT to water-insoluble MTT-formazan of dark blue color by the mitochondrial dehydrogenases of living cells. The absorbance of formazan was measured at a wavelength of 570 nm in a plate reader, iMark Biorad. For a cytotoxic concentration (CC50) the fullerenemalonates were incubated at different concentrations followed by a cell viability assay. The CC50 was determined from the curves obtained by fitting the average absorbance values in three independent experiments in the 10–80 μM fullerenemalonate concentration range."}, "[2]": {"system": "SH-SY5Y neuroblastoma cells", "assay": "MTT cell viability assay", "conditions": "13 μM, 24 h, normalized to control", "method": "as §1"}, "[3]": {"design": "method as in PMID 16853553", "conditions": "aqueous solution; cited from earlier work"}, "[4]": {"system": "Aβ42", "conditions": "cited from earlier work"}}, "note": "Values joined by “and” are separate entries in the source; they are usually repeats but may differ in a detail not shown here. Equal values may be shown once. Read-outs that look alike come from different tables or passages of the source.", "data": [{"molecule": "CCOC(=O)C1(C(=O)OCC)C23c4c5c6c7c8c4-c4c2c2c9c%10c%11c%12c(c-5c5c%13c%14c%15c%16c%17c(c-7c7c%18c%19c%20c%21c(c4C%204C(C(=O)OCC)(C(=O)OCC)C874)c2c2c9c4c%11c7c(c%13%12)c%14c8c%16c9c(c%18%17)c%19c%11c%21c2c2c4c7c8c9c%112)C%152C(C(=O)OCC)(C(=O)OCC)C652)C%1013", "note": "(stereo not drawn) [C3-C63(COOEt)6]", "values": [{"measurement": "Cell survival rate (%)", "setting": "[1]", "result": "78.59 ± 0.22", "unit": "%"}]}, {"molecule": "O=C([O-])C1(C(=O)[O-])C23c4c5c6c7c8c9c(c%10c%11c2c2c4c4c%12c5c5c6c6c8c8c%13c9c9c%10c%10c%11c%11c2c2c4c4c%12c%12c5c5c6c8c6c8c%13c9c9c%10c%10c%11c2c2c4c4c%12c5c6c5c8c9c%10c2c45)C713.[Na+].[Na+]", "note": "[C61(COONa)2]", "values": [{"measurement": "Cell survival rate (%)", "setting": "[2]", "result": "64% and 64.34 ± 0.30%"}, {"measurement": "Average hydrodynamic radius Rh of self-assembled particles", "setting": "[3]", "result": "≈ 32 nm"}]}, {"molecule": "CCOC(=O)C1(C(=O)OCC)C23c4c5c6c7c8c9c(c%10c%11c2c2c4c4c%12c5c5c6c6c8c8c%13c9c9c%10c%10c%11c%11c2c2c4c4c%12c%12c5c5c6c8c6c8c%13c9c9c%10c%10c%11c2c2c4c4c%12c5c6c5c8c9c%10c2c45)C713", "note": "[C61(COOEt)2]", "values": [{"measurement": "Cell survival rate (%)", "setting": "[1]", "result": "65.65 ± 0.29", "unit": "%"}]}, {"molecule": "1,2-(dimethoxymethano) fullerene", "values": [{"measurement": "IC50", "setting": "[4]; Aβ42 concentration 20 μM, read-out: IC50, inhibition of Aβ peptide aggregation", "result": "~9", "unit": "µM"}]}, {"molecule": "sodium fullerenolate", "values": [{"measurement": "Anti-amyloid activity in Aβ42", "setting": "[4]", "result": "strong anti-amyloid activity"}]}]}
